Assay results published in patent US20030225272A1, “Novel mmp-2/mmp-9 inhibitors” (priority 2003, published 2003).

Experiments:
[1] = molecular target: T1, purified recombinant human MMP-2 (Homo sapiens, UniProt P08253); experiment: MMP-2 quenched fluorescence screening assay; assay type: biochemical; details: 96-well quenched fluorescence assay, same fluorogenic peptide substrate
T1 construct: made in house
T1 sequence (P08253 110-660): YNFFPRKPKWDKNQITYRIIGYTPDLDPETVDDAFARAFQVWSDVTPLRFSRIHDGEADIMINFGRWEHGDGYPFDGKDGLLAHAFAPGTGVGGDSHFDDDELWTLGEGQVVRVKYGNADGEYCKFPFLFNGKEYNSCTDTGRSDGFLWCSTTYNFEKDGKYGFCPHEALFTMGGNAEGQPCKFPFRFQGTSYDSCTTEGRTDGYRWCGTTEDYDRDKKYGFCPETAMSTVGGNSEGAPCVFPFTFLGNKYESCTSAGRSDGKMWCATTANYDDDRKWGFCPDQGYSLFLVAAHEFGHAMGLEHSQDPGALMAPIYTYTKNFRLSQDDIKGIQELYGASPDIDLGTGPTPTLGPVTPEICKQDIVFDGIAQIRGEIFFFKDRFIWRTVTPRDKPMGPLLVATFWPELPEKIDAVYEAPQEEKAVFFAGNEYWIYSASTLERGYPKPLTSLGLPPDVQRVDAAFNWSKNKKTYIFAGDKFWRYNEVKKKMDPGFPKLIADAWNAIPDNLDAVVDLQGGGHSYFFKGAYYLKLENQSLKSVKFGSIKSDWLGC
Protocol: (§1) A high-throughput, 96-well screen was used to measure MMP-9 activity and to detect potential inhibitors of MMP-9. The screen is a quenched fluorescence assay. The components of the assay include purified recombinant human MMP-9 (generated by. SB, 3 nM final concentration) and a fluorogenic peptide substrate (Peptides International, Louisville, Ky., 10 (M final concentration) incubated in the presence or absence of compound. Briefly, enzyme activity is measured after 30 minutes incubation at 37(C. and quantitated using a peptide substrate, (Dnp-Pro-Cha-Gly-Cys(Me)-His-Ala-Lys(NMa)-NH2 or (2,4-Dinitrophenyl-L-Prolyl-L-Cyclohexylalanyl-Glycyl(-Methyl-L-Cysteinyl-L-Histidyl-L-Alanyl-N(-Methylenthranoyl-L-Lysine Amide) containing a fluorophore, Nma, on one end of the peptide and a quencher, Dnp, on the other end. When the peptide is intact, the fluorophore is quenched. When the peptide is cleaved by MMP-9, the quencher is dissociated from the fluorophore and a fluorescent signal is emitted that can easily be detected using a fluorescent plate reader. The universal cleavage site within the peptide that is recognized by MMP-1, -2, -3, -9 and -13 is the Gly-Cys bond.
(§2) A 96-well quenched fluorescence assay was used to measure MMP-9 and MMP-2 activity and to detect potential inhibitors of MMP-9 and MMP-2. […] For these additional screens, an IC50 value was determined. […]

[2] = molecular target: T2, purified recombinant human MMP-9 (Homo sapiens, UniProt P14780); experiment: MMP-9 quenched fluorescence screening assay; assay type: biochemical; details: 96-well quenched fluorescence assay, fluorogenic peptide substrate, 30 minutes at 37 C
T2 construct: made in house
Protocol: as §1, §2

T2 sequence (P14780 94-707): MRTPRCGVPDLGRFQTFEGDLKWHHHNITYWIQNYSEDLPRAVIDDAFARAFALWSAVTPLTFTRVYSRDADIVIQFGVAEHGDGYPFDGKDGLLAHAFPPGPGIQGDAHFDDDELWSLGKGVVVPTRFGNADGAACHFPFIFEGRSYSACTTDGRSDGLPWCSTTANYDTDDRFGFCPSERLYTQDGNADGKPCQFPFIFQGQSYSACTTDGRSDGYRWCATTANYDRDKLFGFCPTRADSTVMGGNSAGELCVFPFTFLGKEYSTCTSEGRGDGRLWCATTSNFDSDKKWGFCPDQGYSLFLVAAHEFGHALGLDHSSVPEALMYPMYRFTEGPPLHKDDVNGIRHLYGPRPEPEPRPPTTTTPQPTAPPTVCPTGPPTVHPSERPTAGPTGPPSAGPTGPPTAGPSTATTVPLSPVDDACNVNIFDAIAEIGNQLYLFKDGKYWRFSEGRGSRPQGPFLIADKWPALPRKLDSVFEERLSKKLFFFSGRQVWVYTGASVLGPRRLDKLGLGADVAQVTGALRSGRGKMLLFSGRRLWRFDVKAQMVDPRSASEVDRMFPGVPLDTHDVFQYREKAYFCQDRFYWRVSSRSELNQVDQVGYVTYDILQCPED

SMILES: CCCCCCCCC[C@H](CC(=O)O)C(=O)N[C@@H](C(=O)NC)c1ccccc1 [Example 1, N-[2(R)-Nonylsuccinic acid]-L-phenylglycine-N-methylamide]
- MMP-2 inhibition (screening result in words) [1]: identified as a dual MMP-2/MMP-9 inhibitor
- MMP-9 inhibition (screening result in words) [2]: identified as a dual MMP-2/MMP-9 inhibitor
